Results from PubChem BioAssay (NCI).
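In this assay, cells in 96-well plates receive the compound at five concentrations for 48 hours. Endpoints are linearly interpolated between the surrounding concentrations. At the GI50, growth is halved. Definition used: TGI = concentration required for complete inhibition of growth.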

Key:
Test in all cases: NCI-60 cell line screen, 48 h
[1] = system: SK-OV-3 ovarian
[2] = system: M14 melanoma
[3] = system: UO-31 renal
[4] = system: SF-295 CNS
[5] = system: MDA-MB-435
[6] = system: SW-620 colon
[7] = system: SNB-75 CNS
[8] = system: HCC-2998 colon
[9] = system: HS 578T breast
[10] = system: NCI-H226 lung
[11] = system: COLO 205 colon
[12] = system: UACC-257 melanoma
[13] = system: SNB-19 CNS
[14] = system: OVCAR-5 ovarian
[15] = system: RXF 393 renal
[16] = system: HT29 colon
[17] = system: SR leukemia
[18] = system: KM12 colon
[19] = system: HCT-116 colon
[20] = system: HOP-62 NSCLC
[21] = system: HOP-92 NSCLC
[22] = system: BT-549 breast
[23] = system: U251 CNS
[24] = system: SK-MEL-5 melanoma
[25] = system: EKVX NSCLC
[26] = system: 786-0 renal
[27] = system: SF-268 CNS
[28] = system: SF-539 CNS
[29] = system: NCI/ADR-RES ovarian
[30] = system: MALME-3M melanoma
[31] = system: NCI-H522 lung
[32] = system: MDA-MB-231 breast
[33] = system: RPMI-8226 leukemia
[34] = system: LOX IMVI melanoma
[35] = system: TK-10 renal
[36] = system: UACC-62 melanoma
[37] = system: PC-3 prostate
[38] = system: ACHN renal
[39] = system: OVCAR-4 ovarian
[40] = system: SK-MEL-28 melanoma
[41] = system: HL-60(TB) leukemia
[42] = system: HCT-15 colon
[43] = system: DU-145 prostate
[44] = system: MOLT-4 leukemia
[45] = system: NCI-H23 lung
[46] = system: MCF7 breast
[47] = system: NCI-H460 lung
[48] = system: SK-MEL-2 melanoma
[49] = system: CCRF-CEM leukemia
[50] = system: SN12C renal
[51] = system: A549 NSCLC
[52] = system: A498 renal
[53] = system: IGROV1 ovarian
[54] = system: CAKI-1 renal
[55] = system: OVCAR-8 ovarian
[56] = system: K-562 leukemia
[57] = system: T-47D breast

## Cn1ccnc1C(=O)/C=C/c1ccc(CNC(=O)c2ccc(Cl)cc2)cc1
[1]
  GI50: 5.05 µM
  TGI: > 14.3 µM
[2]
  GI50: 2.78 µM
  TGI: 7 µM
[3]
  GI50: 1.84 µM
  TGI: 3.74 µM
[4]
  GI50: 2.63 µM
  TGI: 6.51 µM
[5]
  GI50: 2.73 µM
  TGI: 6.37 µM
[6]
  GI50: 2.55 µM
  TGI: 5.88 µM
[7]
  GI50: 2.41 µM
  TGI: 10.3 µM
[8]
  GI50: 2.26 µM
  TGI: 4.5 µM
[9]
  GI50: 4.3 µM
  TGI: > 14.3 µM
[10]
  GI50: 3.96 µM
  TGI: > 14.3 µM
[11]
  GI50: 2.45 µM
  TGI: 6.05 µM
[12]
  GI50: 3.12 µM
  TGI: 10.2 µM
[13]
  GI50: 2.15 µM
  TGI: 5.37 µM
[14]
  GI50: 2.52 µM
  TGI: 5.73 µM
[15]
  GI50: 2.07 µM
  TGI: 4.56 µM
[16]
  GI50: 2.39 µM
  TGI: 5.13 µM
[17]
  GI50: 0.626 µM
  TGI: > 14.3 µM
[18]
  GI50: 2.13 µM
  TGI: 4.19 µM
[19]
  GI50: 2.28 µM
  TGI: 5.05 µM
[20]
  GI50: 2.43 µM
  TGI: 5.96 µM
[21]
  GI50: 3.13 µM
  TGI: 12.9 µM
[22]
  GI50: 2.23 µM
  TGI: 4.65 µM
[23]
  GI50: 1.72 µM
  TGI: 4.08 µM
[24]
  GI50: 4.98 µM
  TGI: > 14.3 µM
[25]
  GI50: 3.71 µM
  TGI: > 14.3 µM
[26]
  GI50: 2.58 µM
  TGI: 5.76 µM
[27]
  GI50: 2.38 µM
  TGI: 6.27 µM
[28]
  GI50: 2.06 µM
  TGI: 4.12 µM
[29]
  GI50: 4.03 µM
  TGI: > 14.3 µM
[30]
  GI50: 2.84 µM
  TGI: 8.12 µM
[31]
  GI50: 2.47 µM
  TGI: 4.83 µM
[32]
  GI50: 3.36 µM
  TGI: 14.2 µM
[33]
  GI50: 1.82 µM
  TGI: 6.42 µM
[34]
  GI50: 0.962 µM
  TGI: 2.96 µM
[35]
  GI50: 3.92 µM
  TGI: 13 µM
[36]
  GI50: 2.41 µM
  TGI: 5.1 µM
[37]
  GI50: 2.8 µM
  TGI: 7.18 µM
[38]
  GI50: 2.98 µM
  TGI: 7.42 µM
[39]
  GI50: 3.44 µM
  TGI: > 14.3 µM
[40]
  GI50: 2.53 µM
  TGI: 5.31 µM
[41]
  GI50: 3.4 µM
  TGI: 11.6 µM
[42]
  GI50: 1.61 µM
  TGI: 5.39 µM
[43]
  GI50: 2.2 µM
  TGI: 4.23 µM
[44]
  GI50: 3.82 µM
  TGI: 12.4 µM
[45]
  GI50: 2.68 µM
  TGI: 6.47 µM
[46]
  GI50: 1.75 µM
  TGI: 6.3 µM
[47]
  GI50: 2.61 µM
  TGI: 6.31 µM
[48]
  GI50: 3.42 µM
  TGI: 10.8 µM
[49]
  GI50: 3.38 µM
  TGI: > 14.3 µM
[50]
  GI50: 3.29 µM
  TGI: 11.4 µM
[51]
  GI50: 3.6 µM
  TGI: > 14.3 µM
[52]
  GI50: 2.18 µM
  TGI: 4.17 µM
[53]
  GI50: 2.62 µM
  TGI: 7.73 µM
[54]
  GI50: 3.34 µM
  TGI: > 14.3 µM
[55]
  GI50: 4.15 µM
  TGI: > 14.3 µM
[56]
  GI50: 2.2 µM
  TGI: > 14.3 µM
[57]
  GI50: 3 µM
  TGI: > 14.3 µM
